Measurements: US20140350273A1, “PEDIATRIC USES OF CABAZITAXEL” (AVENTIS PHARMA S.A., priority 2012, published 2014)
Like-named read-outs stand apart in the source and are kept apart here.

System: human Ewing's sarcoma DM101
Format: in vivo
Details: for MTTE / T-C: volume endpoint 2000 mm^3; for tumor volume changes from baseline, Median +/− MAD: nude mice bearing DM101 Ewing's sarcoma; for Tumor Volume Data (Day 11) Median / ΔT/ΔC %: day 11
Protocol: The resultant solution contains 10 mg/mL of cabazitaxel. Stock solution of cabazitaxel was then diluted in 0.9% sodium chloride.
This efficacy may be quantified, for example, as changes in tumor volume for each treated (T) and control (C) group, which are calculated for each animal and each day by subtracting the tumor volume on the day of first treatment (staging day) from the tumor volume on the specified observation day. This allows calculating the tumor growth inhibition: ΔT/ΔC=(median delta T/median delta C)×100. Individual tumor volume changes from baseline are thereafter analyzed by a non-parametric two-way ANOVA-TYPE (with factors: group and repeated days) followed by a post-hoc contrasts analysis, with Bonferroni-Holm adjustment for multiplicity, comparing all treated groups to the control group. […] A probability less than 5% (p<0.05) was considered as significant.
Based on the National Cancer Institute (NCl) standards, a ΔT/ΔC≦40% is the minimal level required to declare activity.
This efficacy may also be quantified by the number of tumor regressions observed after therapy. Individual mice reporting a tumor volume ≦50% of the Day 0 measurement for two consecutive measurements over a seven day period were considered partial responders (PR). Individual mice lacking palpable tumors (<4×4 mm^2 for two consecutive measurements over a seven day period) were classified as complete responders (CR); a CR that persisted until study completion was considered a tumor-free survivor (TFS).
Efficacy could also be determined at study completion, using tumor growth delay (T-C) in days, which is calculated using the median time to endpoint (MTTE) value for each treatment (T) group versus control (C). A Log Rank multiple comparison test with Bonferroni-Holm adjustment for multiplicity was applied on individual TTE to compare the treated groups to the control group.
The animals subjected to the experiment are subcutaneously grafted unilaterally with approximately 30 mg of a tumor fragment from low passage pediatric patient-derived tumor xenografts. The animals are implanted with a human patient-derived pediatric tumor xenografted in immuno-compromised mice (Harlan; nu/nu). Several days post tumor implantation, mice are randomized according to their tumor burden to the different groups of treatments and controls. The agents are dosed intravenously at 5.8, 9.3, 15 or 24.2 mg/kg every 4 days for a total of 3 doses (q4d×3) to mice bearing a tumor burden at start of therapy (day 0) ranged from 125 to 250 mm^3.
Beginning Day 0, animals were observed daily and weighed twice weekly using a digital scale; data including individual and mean gram weights (Mean We±SD), mean percent weight change versus Day 0 were recorded for each group. Animal deaths were recorded daily and designated as drug-related (D), technical (T), tumor related (B), or unknown (U) based on weight loss and gross observation; single agent or combination groups reporting a mean >20% for a period of 7 days and/or >10% mortality were considered above the maximum tolerated dose (MTD) for that treatment on the evaluated regimen.
The selected tumor model, DM101, was a low passage patient-derived tumor xenograft derived from an Ewing's sarcoma taken from the bone of a patient.
The following end points were used: • Toxicity was declared at dosages inducing ≧20% body weight loss or ≧10% drug death; • Antitumor efficacy was determined by calculating the ΔT/ΔC value in percent on day 11 post treatment initiation, according to the above mentioned formula; • Individual tumor volume changes from baseline were analyzed by a non-parametric two-way ANOVA-TYPE (with factors: group and repeated day from 4 to 14) followed by a post-hoc contrasts analysis, with Bonferroni-Holm adjustment for multiplicity, comparing all treated groups to the control group on day 11. […] The volume endpoint for T-C calculations was chosen to be 2000 mm^3.

CC(=O)O[C@@]12CO[C@@H]1C[C@H](O)[C@@]1(C)C(=O)[C@H](O)C3=C(C)[C@@H](OC(=O)[C@H](O)[C@@H](NC(=O)OC(C)(C)C)c4ccccc4)C[C@@](O)([C@@H](OC(=O)c4ccccc4)[C@H]21)C3(C)C [Docetaxel, docetaxel]
#CR (5.8 mg/kg i.v./q4d × 3): 0/0/0
#PR (5.8 mg/kg i.v./q4d × 3): 0/0/0
#TFS (5.8 mg/kg i.v./q4d × 3): 0/0/0
Drug Deaths Total (5.8 mg/kg i.v./q4d × 3): 0
Weight Nadir % (5.8 mg/kg i.v./q4d × 3): −1%
Weight Nadir Day (5.8 mg/kg i.v./q4d × 3): 4
Tumor Volume Data (Day 11) Median (5.8 mg/kg i.v./q4d × 3): 366 mm^3
MTTE (5.8 mg/kg i.v./q4d × 3): 35 days
T-C (5.8 mg/kg i.v./q4d × 3): 18.1 days
tumor volume changes from baseline, Median +/− MAD (5.8 mg/kg, DAY 4): 51 +/− 38
tumor volume changes from baseline, Median +/− MAD (5.8 mg/kg, DAY 7): 98 +/− 79
tumor volume changes from baseline, Median +/− MAD (5.8 mg/kg, DAY 11): 202 +/− 183
tumor volume changes from baseline, Median +/− MAD (5.8 mg/kg, DAY 14): 446 +/− 393
tumor volume changes from baseline, Median +/− MAD (5.8 mg/kg, DAY 17): 640 +/− 621
tumor volume changes from baseline, Median +/− MAD (5.8 mg/kg, DAY 20): 813 +/− 756
tumor volume changes from baseline, Median +/− MAD (5.8 mg/kg, DAY 25): 766 +/− 478
tumor volume changes from baseline, Median +/− MAD (5.8 mg/kg, DAY 28): 1140 +/− 564
tumor volume changes from baseline, Median +/− MAD (5.8 mg/kg, DAY 32): 1694 +/− 281
#CR (9.3 mg/kg i.v./q4d × 3): 4
#PR (9.3 mg/kg i.v./q4d × 3): 4
#TFS (9.3 mg/kg i.v./q4d × 3): 1
Drug Deaths Total (9.3 mg/kg i.v./q4d × 3): 0
Weight Nadir % (9.3 mg/kg i.v./q4d × 3): −4%
Weight Nadir Day (9.3 mg/kg i.v./q4d × 3): 7
Tumor Volume Data (Day 11) Median (9.3 mg/kg i.v./q4d × 3): 505 mm^3
ΔT/ΔC % (9.3 mg/kg i.v./q4d × 3): 36.8%
MTTE (9.3 mg/kg i.v./q4d × 3): 30.5 days
T-C (9.3 mg/kg i.v./q4d × 3): 13.6 days
tumor volume changes from baseline, Median +/− MAD (9.3 mg/kg, DAY 4): 25 +/− 25
tumor volume changes from baseline, Median +/− MAD (9.3 mg/kg, DAY 7): 96 +/− 172
tumor volume changes from baseline, Median +/− MAD (9.3 mg/kg, DAY 11): 301 +/− 223
tumor volume changes from baseline, Median +/− MAD (9.3 mg/kg, DAY 14): 472 +/− 550
tumor volume changes from baseline, Median +/− MAD (9.3 mg/kg, DAY 17): 750 +/− 828
tumor volume changes from baseline, Median +/− MAD (9.3 mg/kg, DAY 20): 813 +/− 891
tumor volume changes from baseline, Median +/− MAD (9.3 mg/kg, DAY 25): −78 +/− 110
tumor volume changes from baseline, Median +/− MAD (9.3 mg/kg, DAY 28): −78 +/− 36
tumor volume changes from baseline, Median +/− MAD (9.3 mg/kg, DAY 32): −78 +/− 34
#CR (15 mg/kg i.v./q4d × 3): 4
#PR (15 mg/kg i.v./q4d × 3): 4
#TFS (15 mg/kg i.v./q4d × 3): 1
Drug Deaths Total (15 mg/kg i.v./q4d × 3): 0
Weight Nadir % (15 mg/kg i.v./q4d × 3): −6%
Weight Nadir Day (15 mg/kg i.v./q4d × 3): 14
Tumor Volume Data (Day 11) Median (15 mg/kg i.v./q4d × 3): 204 mm^3
ΔT/ΔC % (15 mg/kg i.v./q4d × 3): 8.9%
MTTE (15 mg/kg i.v./q4d × 3): 50.9 days
T-C (15 mg/kg i.v./q4d × 3): 34 days
CR (15 mg/kg q4d×3 IV): 4/9
TFS (15 mg/kg q4d×3 IV): 1/9
tumor volume changes from baseline, Median +/− MAD (15 mg/kg, DAY 4): 26 +/− 25
tumor volume changes from baseline, Median +/− MAD (15 mg/kg, DAY 7): 73 +/− 109
tumor volume changes from baseline, Median +/− MAD (15 mg/kg, DAY 11): 73 +/− 186
tumor volume changes from baseline, Median +/− MAD (15 mg/kg, DAY 14): 73 +/− 251
tumor volume changes from baseline, Median +/− MAD (15 mg/kg, DAY 17): 169 +/− 347
tumor volume changes from baseline, Median +/− MAD (15 mg/kg, DAY 20): 290 +/− 468
tumor volume changes from baseline, Median +/− MAD (15 mg/kg, DAY 25): −78 +/− 100
tumor volume changes from baseline, Median +/− MAD (15 mg/kg, DAY 28): −84.5 +/− 70
tumor volume changes from baseline, Median +/− MAD (15 mg/kg, DAY 32): −91 +/− 40
#CR (24.2 mg/kg i.v./q4d × 3): 3
#PR (24.2 mg/kg i.v./q4d × 3): 4
#TFS (24.2 mg/kg i.v./q4d × 3): 2
Drug Deaths Total (24.2 mg/kg i.v./q4d × 3): 0
Weight Nadir % (24.2 mg/kg i.v./q4d × 3): −17%
Weight Nadir Day (24.2 mg/kg i.v./q4d × 3): 14
Tumor Volume Data (Day 11) Median (24.2 mg/kg i.v./q4d × 3): 300 mm^3
ΔT/ΔC % (24.2 mg/kg i.v./q4d × 3): 14.9%
MTTE (24.2 mg/kg i.v./q4d × 3): 32.3 days
T-C (24.2 mg/kg i.v./q4d × 3): 15.4 days
CR (24.2 mg/kg q4d×3 IV): 3/9
TFS (24.2 mg/kg q4d×3 IV): 2/9
tumor volume changes from baseline, Median +/− MAD (24.2 mg/kg, DAY 4): 26 +/− 40
tumor volume changes from baseline, Median +/− MAD (24.2 mg/kg, DAY 7): 122
tumor volume changes from baseline, Median +/− MAD (24.2 mg/kg, DAY 11): 122
tumor volume changes from baseline, Median +/− MAD (24.2 mg/kg, DAY 14): 122
tumor volume changes from baseline, Median +/− MAD (24.2 mg/kg, DAY 17): 122
tumor volume changes from baseline, Median +/− MAD (24.2 mg/kg, DAY 20): 394
tumor volume changes from baseline, Median +/− MAD (24.2 mg/kg, DAY 25): 351.5
tumor volume changes from baseline, Median +/− MAD (24.2 mg/kg, DAY 28): 681
tumor volume changes from baseline, Median +/− MAD (24.2 mg/kg, DAY 32): 254
